Measurements reported in patent US10342854B2, “Leptin active peptide having cd loop and E helix region mutations, coding gene thereof, and application thereof” (SHANGHAI YUANXIN BIOCHEMICAL SCIENCE AND TECHNOLOGY CO. LTD., priority 2015, dated 2019).
Entries after “also recorded” stand apart in the source; their conditions may differ.

Experiments:
[1] = cited from earlier work
3T3-L1 preadipocytes = assay: MTT lipid-lowering (adipocyte-degrading) activity analysis on 3T3-L1 preadipocyte line; type: cell-based; conditions: for adipocyte-degrading (adipocyte lysis) activity compared with positive controls H-LEP and Ros: preadipocytes stage, early differentiation stage D0-D2 and mature adipocyte stage D9, PEP-E 10^−6M, Ros 0.5 μM
Experimental: Lipid degradation activity of the synthesized leptin active peptide having CD-loop and helix E region mutations is analyzed on a cellular level by taking a 3T3-L1 preadipocyte line as a model. Specific operations are as follows:
a. leptin active peptide having CD-loop and helix E region mutations (PEP-E): diluted to 10^−3M with purified water and preserved at −20 degree C. for later use. After an experiment is started, working concentrations have 3 concentration gradients, that is, 10^−6M, 10−9M and 10^−11M;
b. positive control 1: H-LEP recombinant human-derived leptin protein (10221-HNAE, Beijing Sino Biological Inc.), diluted to 10^−6M with purified water and preserved at −20 degree C. for later use. After an experiment is started, the working concentration is 10^−9M.
c. positive control 2: Ros rosiglitazone, R2408, Sigma), diluted to a stock solution with a concentration of 2518 μM with DMSO and preserved at −20 degree C. for later use. After an experiment is started, the stock solution is diluted to a working solution of 0.5 μM with cell culture fluid.
d. negative control (Control): equivalent quantity of PBS
(1) inoculating 3T3-L1 preadipocytes in coming cell bind 96-well plates (totally inoculated with 3 plates, respectively plate a, plate b and plate c), wherein the inoculation density is 4500 cells/well; and marking, and standing and culturing at 37 degree C. in a 5% CO2 incubator. Each sample of each plate is operated repeatedly for 3 times, and the whole experiment is repeated for 3 times;
(2) continuously culturing for 48 hours after the cells are merged to 100% (enabling the cells to exit from a growth cycle, and starting induced differentiation.); and
i, taking out the plate a, respectively adding different amounts of leptin active peptide having CD-loop and helix E region mutations (PEP-E) to enable the working concentrations to be respectively 3 concentration gradients, that is, 10^−6M, 10^−9M and […], setting 2 positive controls, a negative control (PBS) and a blank control (3 repeated holes are set for each sample), and continuously standing and culturing at 37 degree C. in the 5% CO2 incubator.
ii, when culturing to 45 hours (that is, 3 hours before the end of drug treatment), taking out the plate a, and measuring MTT (preadipocytes). Specific operations: adding 20 μL of 5 mg/mL of MTT solution into each well, continuously standing and culturing at 37 degree C. in the 5% CO2 incubator for 3 hours, sucking and discarding the culture solution in the wells, adding 150 μL of DMSO into each well, horizontally shaking for 10 min, detecting a light absorption value at 492 nm by a microplate reader, and drawing a growth curve. […]
ii, when culturing to 45 hours (that is, 3 hours before the end of drug treatment), taking out the plate b, and measuring MTT (at the early differentiation stage, D0-D2). Specific operations: adding 20 μL of 5 mg/mL of MTT solution into each well; continuously standing and culturing at 37 degree C. in the 5% CO2 incubator for 3 hours, sucking and discarding the culture solution in the wells; adding 150 μL of DMSO into each well, horizontally shaking for 10 min, detecting a light absorption value at 492 nm by a microplate reader, and drawing a growth curve; […]

wild type human-derived leptin protein: leptin protein given to obese patients in the first human experiment
weight loss effect in obese patients ([1]; 73 tested obese patients): most of the patients do not have an obvious weight loss effect | weight loss ([1]; only 2 of 73 patients, within 24 weeks): 35 pounds

SCHLHWAPGLETLDSGVQEASGY (An amino acid sequence of the leptin active peptide having CD-loop and helix E region mutations) [PEP-E]
dependence of lipid-lowering activity on concentration and cell differentiation period (3T3-L1 preadipocytes; 10^−6M, 10^−9M, 10^−11M, preadipocytes, D0-D2, D9): obvious concentration dependence and dependence in a cell differentiation period | adipocyte-degrading (adipocyte lysis) activity compared with positive controls H-LEP and Ros (3T3-L1 preadipocytes; 10^−9M, 10^−11M, H-LEP 10^−9M, P<0.05): obviously better than that of the H-LEP; also recorded: obviously better than that of the Ros | adipocyte-degrading (adipocyte lysis) activity compared with positive controls H-LEP and Ros (3T3-L1 preadipocytes; 10^−9M, 10^−11M, H-LEP 10^−9M, P<0.05, listed as leptin active peptide having CD-loop and helix E region mutations): obviously better than that of positive control-human-derived leptin protein (H-LEP) and a commercially available drug rosiglitazone (Ros,) | lipid-lowering activity: stage and concentration of optimal effect (3T3-L1 preadipocytes; three stages, three concentrations compared): optimal effect at the D0-D2 stage when the concentration is 10^−6M

H-LEP: recombinant human-derived leptin protein (10221-HNAE, Beijing Sino Biological Inc.) [reference compound]
adipocyte lysis activity of positive control vs. negative control (3T3-L1 preadipocytes; H-LEP 10^−9M, Ros 0.5 μM vs. PBS, P<0.05): obviously better than that of the negative control
